Converted amounts (≈) assume the structure as drawn. Read-outs that look alike come from different tables or passages of the source.
Columns and labels:
[1] = tested on: S. aureus clinical isolate biofilms; test: Biofilm dispersal and prevention, crystal violet 96-well assay (Example 1); type: cell-based, Staphylococcus aureus; settings: 5 mM; for biofilm dispersal against panel of clinical isolates (biofilm biomass OD570): S. aureus clinical isolates, FIGS. 3A, 3C; for biofilm dispersal in pre-screening of eight D-AAs: pre-formed S. aureus biofilms, FIG. 1
Description: (§1) Biofilm formation was performed under static conditions in polystyrene 96-well plates (Corning, Inc., Corning, N.Y.). Briefly, overnight bacterial cultures were diluted to an OD600 of 0.1 in CA-MHB and 10 μL was added to individual wells filled with 190 μl of media and incubated at 37° C. for 48 h without shaking for biofilm growth. Following incubation, culture media was removed and 200 μL media containing individual D-AA at concentrations of 5 mM-1 nM was added. Plates were incubated for an additional 24 h at 37° C. After treatment, plates were gently washed with 1× phosphate buffered saline (PBS; pH 7.4) to remove non-adherent bacteria. Biofilms (i.e. attached cells) were then stained with 0.1% (w/v) crystal violet for 10 min, washed, followed by solubilization of crystal violet with 33% (v/v) acetic acid for 10 min. Biofilm biomass was determined by measuring the absorbance at 570 nm using a microtiter plate reader. For assays measuring the ability of D-AA to block biofilm formation, cells were grown under biofilm conditions as above in the presence of media containing D-AA. Three independent experiments with a minimum of 4 replicates were performed for each experimental assay. Representative images of the plates of CV stained biofilms following treatment with D-AA, prior to solubilization, were taken using a digital camera.

[2] = tested on: P. aeruginosa clinical isolate biofilms; test: as above; type: cell-based, Pseudomonas aeruginosa; settings: 5 mM; for biofilm dispersal against panel of clinical isolates (biofilm biomass OD570): P. aeruginosa clinical isolates, FIGS. 3A, 3C; for biofilm dispersal in pre-screening of eight D-AAs: pre-formed P. aeruginosa biofilms, FIG. 1
Description: as §1

human dermal fibroblasts = test: CellTiter-Fluor cell viability assay; type: cell-based
Description: (§2) To observe the cellular viability of PUR/D-AA composites, human dermal fibroblasts and human osteoblasts (PromoCell) were maintained in Dulbecco's Modified Eagle Medium (DMEM; Invitrogen) supplemented with 10% Fetal Bovine Serum (FBS) and 1× penicillin/streptomycin. Human epidermal keratinocytes (HEK-001; ATCC CRL-2404) were maintained in Keratinocyte-serum free media (GIBCO) supplemented with 5 ng/mL human recombinant EGF and 2 mM L-glutamine. All cell lines were cultured at 37° C. in 5% CO2. Prior to each assay cells were seeded at 100% confluence in black-clear bottom 96-well plates. After 24 h, cells were exposed to media containing D-AA, 50 mM-1 nM, and incubated for 24-48 h at 37° C. in 5% CO2. Following treatment, cells were washed, resuspended in 100 μL of sterile saline and viability was determined using the CellTiter-Flour Cell Viability Assay (Promega) following the manufacturer's instructions. Viability assays were performed in triplicate with a minimum of 3 replicates. Viability was reported as the percentage of viable cells relative to untreated controls.
(§3) Human dermal fibroblasts and osteoblasts (PromoCell, Heidelberg, Germany) were maintained in Dulbecco's Modified Eagle Medium (DMEM; Invitrogen, Grand Island, N.Y.) supplemented with 10% Fetal Bovine Serum (FBS) and 1× penicillin/streptomycin at 37° C. in 5% CO2. Prior to each assay, cells were seeded at 100% confluence in black-clear bottom 96-well plates. After 24 h cells were exposed to media containing D-AA (1 nM-50 mM) and incubated for 24 h. Following treatment, cells were washed, re-suspended in 100 μL of sterile saline, and assessed for viability using the CellTiter-Fluor Cell Viability Assay (Promega, Madison, Wis.) following the manufacturer's instructions. Viability assays were performed in triplicate with a minimum of four replicates. Viability was reported as the percentage of viable cells relative to untreated controls.

human osteoblasts = test: CellTiter-Fluor cell viability assay; type: cell-based; settings: 24 h
Description: as §2, §3

[3] = tested on: S. aureus clinical isolates biofilms; test: Biofilm dispersal and prevention, crystal violet assay (Example 3); type: cell-based; settings: for dispersal of established biofilms (biofilm biomass): panel of clinical isolates of methicillin-resistant S. aureus (n=5), 5 mM, 24 h, FIGS. 8A, 8C; for biofilm dispersal in pre-screening of eight individual D-AAs: pre-formed biofilms of four clinical isolates, 0.001-50 mM, FIG. 7
Description: Like in Example 1, biofilm formation was assessed under static conditions using polystyrene 96-well plates (Corning, Inc.). Overnight bacterial cultures were diluted to an OD600 of 0.1 in TSB (˜10^7 CFU/mL), and 20 μL were added to individual wells filled with 180 μL of media and incubated at 37° C. for 48 h. To assess the biofilm dispersal activity of D-AAs, the culture medium from biofilms was removed after 48 h and 200 μL fresh medium containing either an individual D-AA or an equimolar mixture of D-AAs (1:1:1: D-Met:D-Pro:D-Trp) were added at the indicated concentrations. After treatment with D-AA(s) for 24 h, plates were gently washed with 1× phosphate buffered saline (PBS) to remove unattached cells, stained with 0.1% (w/v) crystal violet (Sigma Aldrich) for 10 min, rinsed with PBS, and then solubilized with 80% (v/v) ethanol. Biofilm biomass was determined by measuring the absorbance of solubilized stain at 570 nm using a microtiter plate reader. For assays measuring the ability of D-AA to block biofilm formation, cells were grown under biofilm conditions as above in the presence of media containing D-AAs. Representative images of the plates of CV-stained biofilms following treatment with D-AA prior to solubilization were taken using a digital camera. All assays were repeated in triplicate with a minimum of four technical replicates.

[4] = Release of D-AAs from PUR scaffolds in PBS (HPLC); type: physicochemical; settings: for burst release: day 1, PUR scaffold with 10 wt % 1:1:1 D-Met:D-Pro:D-Trp; for b parameter of Weibull model: fit of D-AA release data
Description: Also, kinetic release assays were performed on the PUR scaffolds by incorporating 10 wt % of a 1:1:1 mixture of D-Tr:D-Pro:D-Met incubated in PBS for up to 8 weeks. The medium was be sampled twice weekly and analyzed for D-AAs by HPLC.
PUR scaffolds incorporating 10 wt % of a 1:1:1 mixture of D-Met:D-Pro:D-Trp were incubated in PBS at 37° C. under static conditions for up to 8 weeks. This mixture was evaluated in vitro, in vivo and in the release kinetics tests to account for potential interactions between D-AAs during release. The medium was sampled on days 1, 2, 4, 7, 10, 14, 21, and 28 and analyzed for D-AAs by HPLC using a system equipped with a Waters 1525 binary pump and a 2487 Dual-Absorbance Detector at 200 nm. Samples of released D-AAs were eluted through an Atlantis HILIC Silica column (5 μm particle size, 4.6 mm diameter×250 mm length) using an isocratic mobile phase flowing at 1 mL/min. The mobile phase contained 2.5 mM potassium dihydrogen phosphate with pH=2.85 (A) and Acetonitrile (B) at a ratio of A25:B75. The column oven temperature was maintained at 30° C. Sample concentration was determined in reference to an external standard curve using the Waters Breeze system. Standard curves were prepared in the following concentration ranges: (1) 7.8 μg/mL to 1 mg/mL for D-Met and D-Pro and (2) […] to 100 μg/mL for D-Trp.

S. aureus Xen 36A = test: Contaminated 6-mm excisional cutaneous wounds in mice; type: in vivo, C57BL/6 mice; settings: 2×10^6 CFU, collagen gel with 5% D-Trp, 1 and 3 days, not shown
Description: 6-mm excisional wounds in C57BL/6 mice (6-8 weeks), which had previously been shaved and sterilized, were made. The mice were contaminated with 2×10^6 or 2×10^7 CFU S. aureus Xen 36A (Perkin Elmer, Waltham, Mass.). Approximately 2-3 minutes following exposure to bacteria, collagen gels (hydrogel, HG) with and without 5% D-Trp were applied to the wounds for about 5 minutes before applying a Tegaderm bandage (3M, St. Paul, Minn.). Wounds were monitored daily for up to 3 days. At 1 and 3 days post-infection mice were evaluated using the IVIS (to visualized bioluminescent bacteria within wounds) and the wound tissues were harvested, homogenized, and plated on blood agar to enumerate bacteria within wound (CFU/mL/g tissue).

[5] = Release of D-Trp from collagen gel; type: physicochemical; settings: collagen gel with 5% D-Trp
[6] = tested on: planktonic P. aeruginosa clinical strains (18189, 418); test: MIC by CLSI broth microdilution, planktonic bacteria; type: cell-based, Pseudomonas aeruginosa; settings: * = with 5 mM D-AA; for MIC: Pseudomonas aeruginosa
Description: Overnight cultures of bacterial strains were diluted to a final concentration of 5×10^5 CFU/ml in MHB-II. The resulting bacterial suspension was aliquoted (100 μL) into polystyrene round-bottom 96-well plates containing 100 μL of a 2× concentration of a previously serially diluted (1:2) antibiotic. Each antimicrobial tested was serially diluted 10 times. Following the addition of bacteria, the microtiter plate was covered and was incubated under stationary conditions at 37° C. in the presence of 1× antibiotics. […] MICs of antibiotics were determined in triplicate according to the Clinical and Laboratory Standards Institute (CLSI) broth microdilution as described by the performance standards for antimicrobial susceptibility testing (M100-S22, January 2012).

[7] = tested on: biofilm derived P. aeruginosa clinical strains (18189, 418); test: Biofilm susceptibility, Calgary Biofilm device (MBEC plates): MBIC and viable CFU; type: cell-based, Pseudomonas aeruginosa; settings: * = with 5 mM D-AA; for Biofilm (MBIC) 418: P. aeruginosa 418 biofilm; for Biofilm (MBIC) 18189: P. aeruginosa 18189 biofilm
Description: Biofilm susceptibility to antimicrobial agents in the presence and absence of D-AA was determined using the Calgary Biofilm device. Briefly, biofilms from overnight cultures were established as above on individual pegs of the minimum biofilm eradication concentration (MBEC) plates (Innovotech, Canada) with agitation for 48 h at 37° C. Following incubation, the lid with pegs was removed from the incubation plate, washed by re-suspending pegs into plate with wells containing 200 μl of 1×PBS, then placed into a 96-well challenge plate containing pre-diluted antibiotics with or without an […] for an additional 24 h at 37° C. Following challenge plates were washed, and the attached viable cells on PEGs within the biofilm were determined by plating serial dilutions onto blood agar plates (Remel). Corresponding minimal biofilm inhibitory concentration (MBIC) was also determined by measuring the optical density in individual wells of the challenge plate at 600 nm. The lowest concentration of antibiotic for which an optical density of <0.100 was recorded as the MBIC. For each antibiotic, the MBIC was determined in the presence or absence of a mixture of D-AA (D-Phenylalanine, D-Methionine, and D-Tryptophan) at an equimolar concentration of 5 mM. Three independent experiments were performed for each of these assays, with a minimum of 3 replicates.

[8] = PUR scaffold with 10 wt % D-AA mixture, PBS 37° C.
[9] = P. aeruginosa 418, read-out: Planktonic (MIC) 418
[10] = P. aeruginosa 18189, read-out: Planktonic (MIC) 18189

SMILES	biofilm dispersal against panel of clinical isolates (biofilm biomass OD570) [1]	biofilm dispersal in pre-screening of eight D-AAs [1]	biofilm dispersal against panel of clinical isolates (biofilm biomass OD570) [2]	biofilm dispersal in pre-screening of eight D-AAs [2]	dispersal of established biofilms (biofilm biomass) [3]	biofilm dispersal in pre-screening of eight individual D-AAs [3]	burst release ([4]; PBS 37° C.) [%]	b parameter of Weibull model [4]	Planktonic (MIC) 418 ([6]; P. aeruginosa 418) [µg/mL]	Planktonic (MIC) 18189 ([6]; P. aeruginosa 18189) [µg/mL]	MIC [6, 9] [µg/mL]	MIC [6, 10] [µg/mL]	Biofilm (MBIC) 418 [7] [µg/mL]	Biofilm (MBIC) 18189 [7] [µg/mL]	further results
N[C@H](Cc1c[nH]c2ccccc12)C(=O)O [D-Trp, D-tryptophan]	capable of significantly dispersing biofilm formation	relatively more effective at dispersing biofilms	capable of significantly dispersing biofilm formation	relatively more effective at dispersing biofilms	effective at dispersing established biofilms	effective at dispersing biofilms	25	0.21	–	–	–	–	–	–	cytotoxicity (human dermal fibroblasts; dermal fibroblasts, 50 and 25 mM, 24 h): toxic; viability (percentage of viable cells relative to untreated controls) (human dermal fibroblasts; dermal fibroblasts, concentrations exceeding 12.5 mM, 24 h): ~60%; cytotoxicity (human dermal fibroblasts; dermal fibroblasts, effective range 1-5 mM, 24 h): minimal cytotoxicity; cytotoxicity (human osteoblasts; 50 and 25 mM): toxic; viability (percentage of viable cells relative to untreated controls) (human osteoblasts; concentrations exceeding 12.5 mM): ~60%; cytotoxicity (human osteoblasts; effective range 1-5 mM): minimal cytotoxicity; fraction released at 4 weeks ([4]; PUR scaffold with 10 wt % D-AA mixture): less than 40%; cumulative release by day 28 [4, 8]: 44%; wound contamination (bioluminescence imaging and bacterial counts) (S. aureus Xen 36A): reduced contamination; release in 1 day [5]: about 80%; time to complete release [5]: ≤ 3 days
C[C@@H](O)[C@H]1C(=O)N2C(C(=O)O)=C(SCCN=CN)C[C@H]12 [IMI, Imipenem]	–	–	–	–	–	–	–	–	64	128	128 (≈ 428 µM)	64 (≈ 214 µM)	>128	>128	–
NCC[C@H](O)C(=O)N[C@@H]1C[C@H](N)[C@@H](O[C@H]2O[C@H](CN)[C@@H](O)[C@H](O)[C@H]2O)[C@H](O)[C@H]1O[C@H]1O[C@H](CO)[C@@H](O)[C@H](N)[C@H]1O [AMK, Amikacin]	–	–	–	–	–	–	–	–	16	16	16 (≈ 27.3 µM)	16 (≈ 27.3 µM)	>256	>256	–
CSCC[C@@H](N)C(=O)O [D-Met, D-methionine]	capable of significantly dispersing biofilm formation	relatively more effective at dispersing biofilms	capable of significantly dispersing biofilm formation	relatively more effective at dispersing biofilms	effective at dispersing established biofilms	effective at dispersing biofilms	60	0.56	–	–	–	–	–	–	cytotoxicity (human dermal fibroblasts; human fibroblasts, higher concentrations): cytotoxicity was also observed; cumulative release by day 14 [4, 8]: ~100%

— patent US20150182667A1, “Composition with Biofilm Dispersal Agents” (Vanderbilt University, priority 2012, published 2015)
